Test results: ChEMBL document CHEMBL3600360, “Fluorescent photoaffinity probes for mitotic protein kinase Aurora A” (Bioorg Med Chem Lett, 2015)
The source made the active and inactive calls. No cut-off for these calls is given here.

Tests used:
[1] = biological target: T1, Aurora kinase A (Homo sapiens) (UniProt O14965); assay: Binding affinity to purified recombinant full-length Aurora A (unknown origin) assessed as covalent irreversible complex formation at 2.4 uM irradiated for 15 mins with near-UV light by SDS-PAGE and Western blot method
T1 sequence (whole entry): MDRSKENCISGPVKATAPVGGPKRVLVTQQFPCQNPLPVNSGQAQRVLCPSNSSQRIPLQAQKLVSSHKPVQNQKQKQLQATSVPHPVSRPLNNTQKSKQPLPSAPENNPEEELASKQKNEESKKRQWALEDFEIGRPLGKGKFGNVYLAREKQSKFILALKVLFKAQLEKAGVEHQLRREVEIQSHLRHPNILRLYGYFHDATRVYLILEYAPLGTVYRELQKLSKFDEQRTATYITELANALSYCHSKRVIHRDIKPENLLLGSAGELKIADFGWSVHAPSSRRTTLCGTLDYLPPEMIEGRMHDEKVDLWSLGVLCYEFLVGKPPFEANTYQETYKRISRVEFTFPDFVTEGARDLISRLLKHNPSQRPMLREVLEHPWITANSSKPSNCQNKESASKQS

[2] = biological target: T2, Aurora kinase A (Homo sapiens, UniProt O14965); assay: Binding affinity to purified recombinant full-length Aurora A (unknown origin) by fluorescence polarisation/anisotropy based equilibrium binding assay
T2 sequence (O14965 whole entry): T1 sequence (whole entry)

[3] = biological target: T1, Aurora kinase A (Homo sapiens); assay: Inhibition of purified recombinant full-length Aurora A (unknown origin) assessed as residual enzyme activity at 2 mM using kemptide analogue substrate and 5 mM ATP in presence of TPX2 (1 to 43 residues)
[4] = biological target: T1, Aurora kinase A (Homo sapiens); assay: Binding affinity to 1 uM and >100 uM VX689-prre-treated purified recombinant full-length Aurora A (unknown origin) assessed as covalent irreversible complex formation at 1 uM irradiated for 15 mins with near-UV light by SDS-PAGE and Western blot method
[5] = biological target: T1, Aurora kinase A (Homo sapiens); assay: Binding affinity to purified recombinant full-length Aurora A (unknown origin) assessed as covalent irreversible complex formation at 1.2 uM irradiated for 30 mins with near-UV light by SDS-PAGE and Western blot method
[6] = biological target: T1, Aurora kinase A (Homo sapiens); assay: Binding affinity to Aurora A in human HeLa cells assessed as covalent irreversible complex formation at 1 uM irradiated for 15 mins with near-UV light by SDS-PAGE and Western blot method; type: cell-based
[7] = biological target: T1, Aurora kinase A (Homo sapiens); assay: Binding affinity to Aurora A in human HeLa cells assessed as covalent irreversible complex formation at 1 uM irradiated for 15 mins with near-UV light in presence of Aurora A inhibitor MLN8237 by SDS-PAGE and Western blot method; type: cell-based
[8] = biological target: T1, Aurora kinase A (Homo sapiens); assay: Binding affinity to purified recombinant full-length Aurora A (unknown origin) assessed as covalent irreversible complex formation at 1.2 uM irradiated for 15 mins with near-UV light in presence of TPX2 by SDS-PAGE and Western blot method
[9] = biological target: T1, Aurora kinase A (Homo sapiens); assay: Binding affinity to purified recombinant full-length Aurora A (unknown origin) assessed as covalent irreversible complex formation at 2.4 uM irradiated for 15 mins with near-UV light in presence of TPX2 by SDS-PAGE and Western blot method
[10] = biological target: T1, Aurora kinase A (Homo sapiens); assay: Binding affinity to purified recombinant full-length Aurora A (unknown origin) assessed as covalent irreversible complex formation at 4.8 uM irradiated for 15 mins with near-UV light using 200 nM Aurora A by SDS-PAGE and Western blot method

Row | Structure (SMILES) | Activity [1] [%] | Kd [2] [nM] | Activity [3] [%] | Activity [4] | Activity [5] [%] | Activity [6] | Activity [7] | Activity [8] | Activity [9] | Activity [10]
1 | CCN1/C(=C/C=C/C2=[N+](CC)c3ccc(S(=O)(=O)O)cc3C2(C)C)C(C)(CCCC(=O)NCCCC[C@@H](NC(=O)[C@@H](CCCNC(=N)N)NC(=O)[C@@H](CCCNC(=N)N)NC(=O)[C@@H](CCCNC(=N)N)NC(=O)[C@@H](CCCNC(=N)N)NC(=O)[C@@H](CCCNC(=N)N)NC(=O)[C@@H](CCCNC(=N)N)NC(=O)[C@@H](Cc2ccc(N=[N+]=[N-])cc2)NC(=O)[C@@H](Cc2ccc(N=[N+]=[N-])cc2)NC(=O)CCNC(=O)[C@]2(Cc3cccc(Nc4nccs4)n3)CC[C@@H](Oc3cccc(Cl)c3F)CC2)C(N)=O)c2cc(S(=O)(=O)O)ccc21 (stereo in doubt) | 11 | 2.5 | 96 | inactive | – | – | – | – | – | –
2 | CN(C)c1ccc2c(-c3ccc(C(=O)NCCCOCCOCCOCCCNC(=O)[C@@H](Cc4ccc(N=[N+]=[N-])cc4)NC(=O)CCNC(=O)[C@]4(Cc5cccc(Nc6nccs6)n5)CC[C@@H](Oc5cccc(Cl)c5F)CC4)cc3C(=O)O)c3ccc(=[N+](C)C)cc-3oc2c1 | – | 2.2 | 73 | inactive | 20 | – | – | – | – | –
3 | CCN1/C(=C/C=C/C2=[N+](CC)c3ccc(S(=O)(=O)O)cc3C2(C)C)C(C)(CCCC(=O)NCCCC[C@@H](NC(=O)[C@H](CCCNC(=N)N)NC(=O)[C@H](CCCNC(=N)N)NC(=O)[C@H](CCCNC(=N)N)NC(=O)[C@H](CCCNC(=N)N)NC(=O)[C@H](CCCNC(=N)N)NC(=O)[C@H](CCCNC(=N)N)NC(=O)[C@@H](Cc2ccc(N=[N+]=[N-])cc2)NC(=O)[C@@H](Cc2ccc(N=[N+]=[N-])cc2)NC(=O)CCNC(=O)[C@]2(Cc3cccc(Nc4nccs4)n3)CC[C@@H](Oc3cccc(Cl)c3F)CC2)C(N)=O)c2cc(S(=O)(=O)O)ccc21 (some centres not stated) | 15 | 6.1 | 74 | inactive | – | Active | inactive | – | – | –
4 | CCN1/C(=C/C=C/C2=[N+](CC)c3ccc(S(=O)(=O)O)cc3C2(C)C)C(C)(CCCC(=O)NCCCC[C@@H](NC(=O)[C@@H](CCCNC(=N)N)NC(=O)[C@@H](CCCNC(=N)N)NC(=O)[C@@H](CCCNC(=N)N)NC(=O)[C@@H](CCCNC(=N)N)NC(=O)[C@@H](CCCNC(=N)N)NC(=O)[C@@H](CCCNC(=N)N)NC(=O)[C@@H](Cc2ccc(C(=O)c3ccccc3)cc2)NC(=O)[C@@H](Cc2ccc(C(=O)c3ccccc3)cc2)NC(=O)CCCNC(=O)[C@]2(Cc3cccc(Nc4nccs4)n3)CC[C@@H](Oc3cccc(Cl)c3F)CC2)C(N)=O)c2cc(S(=O)(=O)O)ccc21 (some centres not stated) | 6.9 | 6.5 | 110 | – | – | – | – | – | – | –
5 | CCN1/C(=C/C=C/C2=[N+](CC)c3ccc(S(=O)(=O)O)cc3C2(C)C)C(C)(CCCC(=O)NCCCC[C@@H](NC(=O)[C@@H](CCCNC(=N)N)NC(=O)[C@@H](CCCNC(=N)N)NC(=O)[C@@H](CCCNC(=N)N)NC(=O)[C@@H](CCCNC(=N)N)NC(=O)[C@@H](CCCNC(=N)N)NC(=O)[C@@H](CCCNC(=N)N)NC(=O)[C@H](Cc2ccc(N=[N+]=[N-])cc2)NC(=O)[C@H](Cc2ccc(N=[N+]=[N-])cc2)NC(=O)CCNC(=O)[C@]2(Cc3cccc(Nc4nccs4)n3)CC[C@@H](Oc3cccc(Cl)c3F)CC2)C(N)=O)c2cc(S(=O)(=O)O)ccc21 (some centres not stated) | 18 | 5.7 | 71 | inactive | – | Active | inactive | – | – | –
6 | CN(C)c1ccc2c(-c3ccc(C(=O)NCCCC[C@H](NC(=O)[C@H](Cc4ccccc4)NC(=O)[C@H](Cc4ccccc4)NC(=O)CCCNC(=O)[C@]4(Cc5cccc(Nc6nccs6)n5)CC[C@@H](Oc5cccc(Cl)c5F)CC4)C(N)=O)cc3C(=O)O)c3ccc(=[N+](C)C)cc-3oc2c1 | – | 0.44 | 110 | – | 1.5 | – | – | Active | – | –
7 | O=C(O)[C@]1(Cc2cccc(Nc3nccs3)n2)CC[C@@H](Oc2cccc(Cl)c2F)CC1 | – | – | 67 | – | – | – | – | – | – | –
8 | CCN1/C(=C/C=C/C2=[N+](CC)c3ccc(S(=O)(=O)O)cc3C2(C)C)C(C)(CCCC(=O)NCCCC[C@@H](NC(=O)[C@@H](CCCNC(=N)N)NC(=O)[C@@H](CCCNC(=N)N)NC(=O)[C@@H](CCCNC(=N)N)NC(=O)[C@@H](CCCNC(=N)N)NC(=O)[C@@H](CCCNC(=N)N)NC(=O)[C@@H](CCCNC(=N)N)NC(=O)[C@H](Cc2ccc(C(=O)c3ccccc3)cc2)NC(=O)[C@H](Cc2ccc(C(=O)c3ccccc3)cc2)NC(=O)CCCNC(=O)[C@]2(Cc3cccc(Nc4nccs4)n3)CC[C@@H](Oc3cccc(Cl)c3F)CC2)C(N)=O)c2cc(S(=O)(=O)O)ccc21 (some centres not stated) | 8.1 | 9.1 | 100 | – | – | – | – | – | – | –
9 | N=C(N)NCCC[C@@H](NC(=O)[C@@H](CCCNC(=N)N)NC(=O)[C@@H](CCCNC(=N)N)NC(=O)[C@@H](CCCNC(=N)N)NC(=O)[C@@H](CCCNC(=N)N)NC(=O)[C@@H](CCCNC(=N)N)NC(=O)CCCCCNC(=O)[C@]1(Cc2cccc(Nc3nccs3)n2)CC[C@@H](Oc2cccc(Cl)c2F)CC1)C(N)=O | – | – | 10 | – | – | – | – | – | – | –
10 | CN(C)c1ccc2c(-c3ccc(C(=O)NCCCC[C@H](NC(=O)[C@H](Cc4ccc(N=[N+]=[N-])cc4)NC(=O)[C@H](Cc4ccc(N=[N+]=[N-])cc4)NC(=O)CCCNC(=O)[C@]4(Cc5cccc(Nc6nccs6)n5)CC[C@@H](Oc5cccc(Cl)c5F)CC4)C(N)=O)cc3C(=O)O)c3ccc(=[N+](C)C)cc-3oc2c1 | 40 | 1.9 | 100 | inactive | – | Active | Active | – | Active | inactive
11 | CCN1/C(=C/C=C/C2=[N+](CC)c3ccc(S(=O)(=O)O)cc3C2(C)C)C(C)(CCCC(=O)NCCCC[C@@H](NC(=O)[C@H](CCCNC(=N)N)NC(=O)[C@H](CCCNC(=N)N)NC(=O)[C@H](CCCNC(=N)N)NC(=O)[C@H](CCCNC(=N)N)NC(=O)[C@H](CCCNC(=N)N)NC(=O)[C@H](CCCNC(=N)N)NC(=O)[C@H](Cc2ccc(C(=O)c3ccccc3)cc2)NC(=O)[C@H](Cc2ccc(C(=O)c3ccccc3)cc2)NC(=O)CCCNC(=O)[C@]2(Cc3cccc(Nc4nccs4)n3)CC[C@@H](Oc3cccc(Cl)c3F)CC2)C(N)=O)c2cc(S(=O)(=O)O)ccc21 (some centres not stated) | 8.5 | – | 100 | – | – | – | – | – | – | –
12 | CN(C)c1ccc2c(-c3ccc(C(=O)NCCCC[C@H](NC(=O)[C@H](Cc4ccc(C(=O)c5ccccc5)cc4)NC(=O)[C@H](Cc4ccc(C(=O)c5ccccc5)cc4)NC(=O)CCCNC(=O)[C@]4(Cc5cccc(Nc6nccs6)n5)CC[C@@H](Oc5cccc(Cl)c5F)CC4)C(N)=O)cc3C(=O)O)c3ccc(=[N+](C)C)cc-3oc2c1 | – | – | 100 | – | 9 | Active | Active | Active | – | –
